Species: Rattus norvegicus
Experiment: Inhibition of rat recombinant geranylgeranyltransferase type I expressed in Escherichia coli assessed as residual enzyme activity for geranylgeranylation of K-Ras4B at 50 uM incubated for 30 mins in presence of [3H]GGPP by scintillation counting assay relative to control

Row | SMILES | Activity
1 | CCS[C@@H]1C[C@@H](c2ccc(C)cc2)N(S(C)(=O)=O)C[C@H]1C(=O)O | 94.8%
2 | Cc1ccc(S(=O)(=O)N2[C@@H](c3ccc(C(C)(C)C)cc3)C(C(=O)O)=CC[C@H]2c2ccc3c(c2)OCO3)cc1 | 87.2%
3 | CCCCCCS[C@@H]1C[C@@H](c2ccc3c(c2)OCO3)N(S(=O)(=O)c2ccc(C)cc2)C[C@H]1C(=O)O | 62.7%
4 | COc1ccc(S[C@@H]2C[C@@H](c3ccc(OC)cc3)N(S(=O)(=O)c3ccc(C)cc3)C[C@H]2C(=O)O)cc1 | 97%
5 | CCCS[C@@H]1C[C@@H](c2ccc(OC)cc2)N(S(=O)(=O)c2ccc(C)cc2)C[C@H]1C(=O)O | 88.9%
6 | Cc1ccc([C@@H]2C[C@@H](SCCC(C)C)[C@H](C(=O)O)CN2S(=O)(=O)c2ccc(C)cc2)cc1 | 92.9%
7 | CCc1ccc([C@@H]2CC=C(C(=O)O)[C@H](c3cccc(F)c3)N2S(=O)(=O)c2ccc(C)cc2)cc1 | 55%
8 | COc1ccc(S[C@@H]2C[C@@H](c3ccc(OC)c(OC)c3)N(S(=O)(=O)c3ccc(C)cc3)C[C@H]2C(=O)O)cc1 | 101%
9 | CCCS[C@@H]1C[C@@H](c2ccc(C)cc2)N(S(=O)(=O)c2ccccc2)C[C@H]1C(=O)O | 100%
10 | Cc1ccc(S[C@@H]2C[C@@H](c3ccc(C)cc3)N(S(=O)(=O)c3ccc(Cl)cc3)C[C@H]2C(=O)O)cc1 | 92.4%
11 | COc1ccc([C@@H]2C[C@@H](Sc3ccc(C)cc3)[C@H](C(=O)O)CN2S(=O)(=O)c2ccc(Cl)cc2)cc1 | 83.2%
12 | COc1ccc(S[C@@H]2C[C@@H](c3ccc(C)cc3)N(S(=O)(=O)c3ccccc3C)C[C@H]2C(=O)O)cc1 | 99%
13 | Cc1ccc([C@@H]2C[C@@H](SC3CCCC3)[C@H](C(=O)O)CN2S(=O)(=O)c2ccccc2C)cc1 | 93.5%
14 | COC(=O)c1ccccc1S(=O)(=O)N1[C@@H](c2cccc(Cl)c2)C(C(=O)O)=CC[C@H]1c1ccc(C)cc1 | 56.2%
15 | Cc1ccc(S(=O)(=O)N2[C@@H](c3ccc(Cl)cc3)C(C(=O)O)=CC[C@H]2c2ccc(C(C)C)cc2)cc1 | 57.6%
16 | COc1ccc([C@@H]2C[C@@H](SC3CCCC3)[C@H](C(=O)O)CN2S(=O)(=O)c2ccc(Cl)cc2)cc1 | 83.1%
17 | COc1ccc([C@@H]2CC=C(C(=O)O)[C@H](c3ccc(C(C)(C)C)cc3)N2S(=O)(=O)c2ccc(C)cc2)cc1 | 91.1%
18 | Cc1ccc([C@H]2C(C(=O)O)=CC[C@@H](c3ccc(C(C)C)cc3)N2S(=O)(=O)c2ccc(C)cc2)cc1 | 63.7%
19 | CC(=O)C1=CC[C@@H](c2cccc(Cl)c2)N(S(=O)(=O)c2ccc(C)cc2)C1 | 86%
20 | CCCCCCS[C@@H]1C[C@@H](c2ccc(OC)cc2)N(S(=O)(=O)c2ccccc2C)C[C@H]1C(=O)O | 72.9%
21 | COc1ccc([C@@H]2CC=C(C(=O)O)[C@H](c3ccc(Cl)cc3)N2S(=O)(=O)c2ccc(C)cc2)cc1 | 91.4%
22 | CCCCS[C@@H]1C[C@@H](c2ccc(C)cc2)N(S(=O)(=O)c2ccccc2)C[C@H]1C(=O)O | 72.6%
23 | CCc1ccc([C@@H]2CC=C(C(=O)O)[C@H](c3ccc(Br)cc3)N2S(=O)(=O)c2ccc(C)cc2)cc1 | 69.2%
24 | CCCCCCS[C@@H]1C[C@@H](c2ccc(Cl)cc2)N(S(=O)(=O)c2ccc(C)cc2)C[C@H]1C(=O)O | 72.2%
25 | COc1ccc([C@@H]2CC=C(C(=O)O)[C@H](c3ccc(F)cc3)N2S(=O)(=O)c2ccc(Cl)cc2)cc1 | 67.2%
26 | C=CCS[C@@H]1C[C@@H](c2ccc(OC)cc2)N(S(=O)(=O)c2ccccc2C)C[C@H]1C(=O)O | 65.1%

Row | SMILES | Activity
27 | Cc1ccc(S(=O)(=O)N2[C@@H](c3cccc(F)c3)C(C(=O)O)=CC[C@H]2c2cccc(C)c2)cc1 | 75.6%
28 | CCCCCCS[C@@H]1C[C@@H](c2cccc(Br)c2)N(S(=O)(=O)c2ccc(C)cc2)C[C@H]1C(=O)O | 68.9%
29 | CS(=O)(=O)N1[C@@H](c2cccc(F)c2)C(C(=O)O)=CC[C@H]1c1ccccc1 | 86.6%
30 | Cc1ccc([C@@H]2C[C@@H](SCc3ccccc3)[C@H](C(=O)O)CN2S(=O)(=O)c2ccc(Cl)cc2)cc1 | 40.3%
31 | Cc1ccc([C@@H]2CC=C(C(=O)O)[C@H](c3ccc(C(C)(C)C)cc3)N2S(=O)(=O)c2ccc(Cl)cc2)cc1 | 74.4%
32 | CCc1ccc([C@@H]2CC=C(C(=O)O)[C@H](c3cccc(C)c3)N2S(=O)(=O)c2ccc(C)cc2)cc1 | 60.5%
33 | C=CCS[C@@H]1C[C@@H](c2ccc(OCC)cc2)N(S(=O)(=O)c2ccc(C)cc2)C[C@H]1C(=O)O | 96.7%
34 | Cc1ccc([C@@H]2C[C@@H](Sc3ccccc3)[C@H](C(=O)O)CN2S(C)(=O)=O)cc1 | 99.6%
35 | CS(=O)(=O)N1[C@@H](c2cccc(Br)c2)C(C(=O)O)=CC[C@H]1c1ccccc1 | 63.5%
36 | COc1ccc([C@@H]2CC=C(C(=O)O)[C@H](c3ccc(F)cc3)N2S(=O)(=O)c2ccc(C)cc2)cc1 | 72.9%
37 | Cc1cccc([C@H]2C(C(=O)O)=CC[C@@H](c3ccc(Cl)cc3)N2S(C)(=O)=O)c1 | 45.5%
38 | COc1ccc([C@@H]2C[C@@H](Sc3ccccc3)[C@H](C(=O)O)CN2S(=O)(=O)c2ccc(C)cc2)cc1OC | 112%
39 | CCOc1ccc([C@@H]2CC=C(C(=O)O)[C@H](c3ccc(F)cc3)N2S(=O)(=O)c2ccc(C)cc2)cc1 | 66.2%
40 | CC(=O)C1=CC[C@@H](c2cccc(Br)c2)N(S(=O)(=O)c2ccc(C)cc2)C1 | 105%
41 | Cc1ccccc1S(=O)(=O)N1[C@@H](c2ccc(Br)cc2)C(C(=O)O)=CC[C@H]1c1ccc(Cl)cc1 | 86.6%
42 | CS(=O)(=O)N1[C@@H](c2cccc(Br)c2)C(C(=O)O)=CC[C@H]1c1ccc(Cl)cc1 | 50.4%
43 | CCCCS[C@@H]1C[C@@H](c2ccc(C)cc2)N(S(=O)(=O)c2ccc(C)cc2)C[C@H]1C(=O)O | 82.6%
44 | CCOc1ccc([C@@H]2C[C@@H](SCc3ccc(C(C)(C)C)cc3)[C@H](C(=O)O)CN2S(=O)(=O)c2ccc(C)cc2)cc1 | 46%
45 | Cc1ccccc1S(=O)(=O)N1C[C@@H](C(=O)O)[C@H](SCC(C)C)C[C@H]1c1ccc(Cl)cc1 | 76.1%
46 | Cc1ccc(S(=O)(=O)N2[C@@H](c3ccc(F)cc3)C(C(=O)O)=CC[C@H]2c2ccc(Cl)cc2)cc1 | 62%
47 | CCc1ccc([C@@H]2CC=C(C(=O)O)[C@H](c3ccc(C)cc3)N2S(=O)(=O)c2ccc(C)cc2)cc1 | 87%
48 | COc1cccc([C@@H]2CC=C(C(=O)O)[C@H](c3cccc(F)c3)N2S(=O)(=O)c2ccc(C)cc2)c1 | 82.9%
49 | COc1ccc(S[C@@H]2C[C@@H](c3ccc(C)cc3)N(S(=O)(=O)c3ccc(Cl)cc3)C[C@H]2C(=O)O)cc1 | 82.7%
50 | Cc1ccc(S[C@@H]2C[C@@H](c3ccc(C)cc3)N(S(=O)(=O)c3ccccc3C)C[C@H]2C(=O)O)cc1 | 92.4%
51 | COc1cccc([C@@H]2C[C@@H](SC3CCCC3)[C@H](C(=O)O)CN2S(=O)(=O)c2ccc(C)cc2)c1 | 113%

Further lines, results first:

Row | Activity | SMILES
52 | 89.8% | CCc1ccc([C@@H]2CC=C(C(=O)O)[C@H](c3ccc(Cl)cc3)N2S(=O)(=O)c2ccc(C)cc2)cc1
53 | 92.1% | Cc1ccc(S(=O)(=O)N2C[C@@H](C(=O)O)[C@H](SCc3ccccc3)C[C@H]2c2ccccc2)cc1
54 | 107% | COc1ccc([C@@H]2C[C@@H](Sc3ccc(Cl)cc3)[C@H](C(=O)O)CN2S(=O)(=O)c2ccc(C)cc2)cc1OC
55 | 75.8% | CCCCCS[C@@H]1C[C@@H](c2ccc(C)cc2)N(S(=O)(=O)c2ccc(Cl)cc2)C[C@H]1C(=O)O
56 | 103% | COc1ccc([C@@H]2C[C@@H](Sc3ccccc3)[C@H](C(=O)O)CN2S(=O)(=O)c2ccccc2)cc1
57 | 50.9% | Cc1ccc([C@@H]2CC=C(C(=O)O)[C@H](c3ccc(F)cc3)N2S(=O)(=O)c2ccccc2C)cc1
58 | 91.4% | CCCS[C@@H]1C[C@@H](c2ccc(OC)c(OC)c2)N(S(=O)(=O)c2ccc(C)cc2)C[C@H]1C(=O)O
59 | 62.9% | CCCCCS[C@@H]1C[C@@H](c2ccc(C)cc2)N(S(=O)(=O)c2ccccc2C)C[C@H]1C(=O)O
60 | 69% | CCCS[C@@H]1C[C@@H](c2ccc(CC)cc2)N(S(=O)(=O)c2ccc(C)cc2)C[C@H]1C(=O)O
61 | 94.5% | COc1ccc([C@@H]2C[C@@H](SC3CCCC3)[C@H](C(=O)O)CN2S(=O)(=O)c2ccccc2)cc1
62 | 52.8% | Cc1ccc(S(=O)(=O)N2[C@@H](c3cccc(F)c3)C(C(=O)O)=CC[C@H]2c2cccc(Cl)c2)cc1
63 | 66.3% | Cc1ccc([C@@H]2CC=C(C(=O)O)[C@H](c3cccc(C)c3)N2S(=O)(=O)c2ccc(C)cc2)cc1
64 | 57.4% | Cc1ccc(S(=O)(=O)N2C[C@@H](C(=O)O)[C@H](Sc3ccccc3)C[C@H]2c2ccc3c(c2)OCO3)cc1
65 | 85% | COc1cccc([C@@H]2CC=C(C(C)=O)CN2S(=O)(=O)c2ccc(C)cc2)c1
66 | 84.6% | CCOc1ccc([C@@H]2C[C@@H](SC3CCCC3)[C@H](C(=O)O)CN2S(=O)(=O)c2ccc(C)cc2)cc1
67 | 75.3% | CCCCCCS[C@@H]1C[C@@H](c2ccccc2F)N(S(=O)(=O)c2ccc(C)cc2)C[C@H]1C(=O)O
68 | 75.1% | Cc1ccc(S(=O)(=O)N2[C@@H](c3cccc(Br)c3)C(C(=O)O)=CC[C@H]2c2ccc3c(c2)OCO3)cc1
69 | 70.1% | Cc1ccc(S(=O)(=O)N2[C@@H](c3cccc(F)c3)C(C(=O)O)=CC[C@H]2c2ccc(F)cc2)cc1
70 | 78.4% | Cc1ccc([C@@H]2CC=C(C(=O)O)[C@H](c3ccc(Br)cc3)N2S(=O)(=O)c2ccccc2)cc1
71 | 110% | COc1ccc(S[C@@H]2C[C@@H](c3cc(OC)c(OC)c(OC)c3)N(S(=O)(=O)c3ccc(C)cc3)C[C@H]2C(=O)O)cc1
72 | 89.3% | COc1ccc([C@@H]2CC=C(C(=O)O)[C@H](c3cccc(Cl)c3)N2S(=O)(=O)c2ccc(C)cc2)cc1
73 | 65.8% | CCCCCS[C@@H]1C[C@@H](c2ccc(CC)cc2)N(S(=O)(=O)c2ccc(C)cc2)C[C@H]1C(=O)O
74 | 73.5% | CCCCS[C@@H]1C[C@@H](c2cc(OC)c(OC)c(OC)c2)N(S(=O)(=O)c2ccc(C)cc2)C[C@H]1C(=O)O
75 | 66.3% | CCCCCCS[C@@H]1C[C@@H](c2ccc(Cl)cc2)N(S(=O)(=O)c2ccccc2C)C[C@H]1C(=O)O
76 | 66.6% | Cc1ccc([C@@H]2CC=C(C(=O)O)[C@H](c3cccc(Br)c3)N2S(C)(=O)=O)cc1
77 | 34.5% | C=CCS[C@@H]1C[C@@H](c2ccc(C)cc2)N(S(=O)(=O)c2ccccc2C)C[C@H]1C(=O)O
